Broadly, the ΔTm is the shift of the melting midpoint relative to a reference.

The values that follow come from ChEMBL document CHEMBL3400117, “2-Aminophenanthroline dimer stabilized the C-C mismatched duplex DNA” (Bioorg Med Chem, 2015).

Assay [1] is described as follows: Binding affinity to 5'-CTAACCGAATG-3'/3'-GATTGCCTTAC-5' duplex DNA (unknown origin) in sodium cacodylate buffer assessed as change in melting temperature at 10 uM at pH 7.
The nature of assay [2]: Binding affinity to 5'-CTAACTGAATG-3'/3'-GATTGTCTTAC-5' duplex DNA (unknown origin) in sodium cacodylate buffer assessed as change in melting temperature at 10 uM at pH 7.
Assay [3] is described as follows: Binding affinity to 5'-TCCAG_GCAAC-3'/3'-AGGTCTCGTTG-5' duplex DNA (unknown origin) in sodium cacodylate buffer assessed as change in melting temperature at 20 uM at pH 7.
A short description of assay [4]: Binding affinity to 5'-CTAACAGAATG-3'/3'-GATTGACTTAC-5' duplex DNA (unknown origin) in sodium cacodylate buffer assessed as change in melting temperature at 10 uM at pH 7.
The nature of assay [5]: Binding affinity to 5'-TCCAG_GCAAC-3'/3'-AGGTCGCGTTG-5' duplex DNA (unknown origin) in sodium cacodylate buffer assessed as change in melting temperature at 20 uM at pH 7.
Assay [6] in a line: Binding affinity to 5'-CTAACTGAATG-3'/3'-GATTGGCTTAC-5' duplex DNA (unknown origin) in sodium cacodylate buffer assessed as change in melting temperature at 10 uM at pH 7.
A short description of assay [7]: Binding affinity to 5'-TCCAG_GCAAC-3'/3'-AGGTCACGTTG-5' duplex DNA (unknown origin) in sodium cacodylate buffer assessed as change in melting temperature at 20 uM at pH 7.
Assay [8] is described as follows: Binding affinity to 5'-CTAACAGAATG-3'/3'-GATTGGCTTAC-5' duplex DNA (unknown origin) in sodium cacodylate buffer assessed as change in melting temperature at 10 uM at pH 7.
The nature of assay [9]: Binding affinity to 5'-CTAACGGAATG-3'/3'-GATTGGCTTAC-5' duplex DNA (unknown origin) in sodium cacodylate buffer assessed as change in melting temperature at 10 uM at pH 7.
Assay [10] is described as follows: Binding affinity to 5'-TCCAGGCAAC-3'/3'-AGGTCCGTTG-5' duplex DNA (unknown origin) in sodium cacodylate buffer assessed as change in melting temperature at 20 uM at pH 7.
Assay [11] can be described thus: Binding affinity to 5'-CTAACAGAATG-3'/3'-GATTGCCTTAC-5' duplex DNA (unknown origin) in sodium cacodylate buffer assessed as change in melting temperature at 10 uM at pH 7.
Assay [12] is described as follows: Binding affinity to 5'-CTAACCGAATG-3'/3'-GATTGGCTTAC-5' duplex DNA (unknown origin) in sodium cacodylate buffer assessed as change in melting temperature at 10 uM at pH 7.
A short description of assay [13]: Binding affinity to 5'-CTAACTGAATG-3'/3'-GATTGACTTAC-5' duplex DNA (unknown origin) in sodium cacodylate buffer assessed as change in melting temperature at 10 uM at pH 7.
Assay [14] is described as follows: Binding affinity to 5'-TCCAG_GCAAC-3'/3'-AGGTCCCGTTG-5' duplex DNA (unknown origin) in sodium cacodylate buffer assessed as change in melting temperature at 20 uM at pH 7.
Assay [15] in a line: Binding affinity to 5'-CTAACTGAATG-3'/3'-GATTGCCTTAC-5' duplex DNA (unknown origin) in sodium cacodylate buffer assessed as change in melting temperature at 10 uM at pH 7.
Assay [16] in a line: Binding affinity to 5'-GCTAACCTAATGA-3'/3'-CGATTGCATTACT-5' duplex DNA (unknown origin) assessed as change in melting temperature.
A short description of assay [17]: Binding affinity to 5'-GCTAATCAAATGA-3'/3'-CGATTACTTTACT-5' duplex DNA (unknown origin) assessed as change in melting temperature.
Assay [18] in a line: Binding affinity to 5'-GCTAACCCAATGA-3'/3'-CGATTGCGTTACT-5' duplex DNA (unknown origin) assessed as change in melting temperature.
Assay [19] can be described thus: Binding affinity to 5'-GCTAAACTAATGA-3'/3'-CGATTTCATTACT-5' duplex DNA (unknown origin) assessed as change in melting temperature.
Assay [20] is described as follows: Binding affinity to 5'-CTAACCGAATG-3'/3'-GATTGCCTTAC-5' duplex DNA (unknown origin) in sodium cacodylate buffer assessed as change in melting temperature at pH 7.
Assay [21] is described as follows: Binding affinity to 5'-GCTAAGCCAATGA-3'/3'-CGATTCCGTTACT-5' duplex DNA (unknown origin) assessed as change in melting temperature.
Assay [22] is described as follows: Binding affinity to 5'-GCTAACCAAATGA-3'/3'-CGATTGCTTTACT-5' duplex DNA (unknown origin) assessed as change in melting temperature.
Assay [23] is described as follows: Binding affinity to 5'-GCTAACCGAATGA-3'/3'-CGATTGCCTTACT-5' duplex DNA (unknown origin) assessed as change in melting temperature.
The nature of assay [24]: Binding affinity to 5'-GCTAAGCAAATGA-3'/3'-CGATTCCTTTACT-5' duplex DNA (unknown origin) assessed as change in melting temperature.
A short description of assay [25]: Binding affinity to 5'-GCTAAACAAATGA-3'/3'-CGATTTCTTTACT-5' duplex DNA (unknown origin) assessed as change in melting temperature.
Assay [26] is described as follows: Binding affinity to 5'-GCTAAGCTAATGA-3'/3'-CGATTCCATTACT-5' duplex DNA (unknown origin) assessed as change in melting temperature.

Molecules are shown by their SMILES.

`NCCC(=O)Nc1ccc2ccc3cccnc3c2n1`: the ΔTm in [1] came to 1.6 °C; in assay [2], 1.3 °C; in assay [3] it was 3.6 °C; in assay [4], 1.3 °C; in assay [5] it was 3 °C; in [6] it was 1.3 °C. For the same compound, the ΔTm in assay [7] came out at 3.4 °C; in [8] it was 1.2 °C; in assay [9] it was 0.8 °C; in [10], 0.2 °C; in [11] it was 0.5 °C; in assay [12] it was 0.6 °C. In addition, the ΔTm was determined as 0.9 °C in [13], 6 °C in assay [14] and 0.4 °C in assay [15].
On to `O=C(CCNCCC(=O)Nc1ccc2ccc3cccnc3c2n1)Nc1ccc2ccc3cccnc3c2n1`, for which the ΔTm in assay [16] worked out at 5.6 °C; in assay [1] it was 7.8 °C; in [2] it was 1.4 °C; in assay [4], 2.1 °C; in assay [17], 4.4 °C; in assay [18], 4.7 °C. For the same compound, the ΔTm in assay [6] was 0.3 °C; in [19], 5.7 °C; in assay [8], 1.5 °C; in [9], 1.4 °C; in assay [11], 4.4 °C; in assay [12], 0.3 °C. Moreover, the ΔTm in assay [21] was determined as 6.5 °C; in assay [22], 3.8 °C; in assay [23], 4 °C; in [13], 0.4 °C; in assay [24], 4.2 °C; in assay [25], 4 °C. Also, the ΔTm in [26] was 5.6 °C; in assay [15] it was 4.4 °C. For the same compound, the Activity result in [20] was “Dose-dependent effect”.
Regarding `O=C(CCNCCC(=O)Nc1ccc2ccccc2n1)Nc1ccc2ccccc2n1`, the ΔTm in assay [1] was 2.6 °C; in [2] it was 0.2 °C; in [4], -0.5 °C; in assay [6], -0.5 °C; in assay [8] it was -0.4 °C; in assay [9] it was -0.2 °C. Also, the ΔTm in assay [11] is 1.6 °C; in assay [12], 0.2 °C; in assay [13], -0.1 °C; in assay [15] it was 0.7 °C.
`O=C(CCNCCC(=O)Nc1ccc2ccc3cccnc3c2n1)Nc1ccc2ccccc2n1`: the ΔTm was 2.6 °C in [1]; 1.5 °C in [2]; 0 °C in [4]; 0.1 °C in [6]; -0.2 °C in assay [8]; 0.3 °C in [9]. Besides, the shift in melting temperature (ΔTm) in [11] is 0.4 °C; in [12], 0.3 °C; in [13] it was -0.1 °C; in assay [15], 2.3 °C.
